Test results as given in patent US20130072532A1, “TOPICAL TRANSDERMAL DEXMEDETOMIDINE COMPOSITIONS AND METHODS OF USE THEREOF” (priority 2010, published 2013).
Like-named read-outs stand apart in the source and are kept apart here.

How the values were obtained:
clinical = details: human, in vivo
From the text: Dexmedetomidine plasma concentration-time data from clinical study # REC-10-006 were used in predicting the steady-state concentration-time profiles resulting from once-daily (QD) and twice-daily (BID) topical application of a 0.25, 0.5, and 1-gram dose. The data from the following 3 subjects were used: 1001, 1004, and 1005. The three subjects participated in the following treatment arms: Treatment A (0.25-gram dose), Treatment C (0.5-gram dose), and Treatment E (1.0-gram dose). Clinical study # REC-10-006 was a single ascending-dose study with multiple treatment arms (Treatments A, B, C, D and E). Plasma samples for drug analysis were taken at pre-dose (0 hour) and at the following specified times after dosing: 0.5, 1, 1.5, 2, 3, 4, 6, 8, 10, 12, 18, 24, 30, 36, and 48 hours. The lower limit of quantification of the bioanalytical assay was 0.02 ng/mL.
All pharmacokinetic parameters were analyzed using compartmental analysis. Dexmedetomidine plasma concentration-time data from Period 1 (REC-10-006) were used in predicting the steady-state concentration-time profiles resulting from once-daily (QD) and twice-daily (BID) topical application of 0.25-, 0.5- and 1.0-gram doses. The data used were from three subjects (Identifiers 1001, 1004, and 1005) who participated in treatment arms A (0.25-gram dose), C (0.5-gram dose), and E (1.0-gram dose). Blood samples for drug analysis were taken at pre-dose and at the following specified times after dosing: 0.25, 0.5, 0.75, 1, 1.5, 2, 2.5, 3, 4, 5, 6, 7, 8, 12, 24, 48, and 72 hours. […] Once the PK parameters were calculated and the single-dose concentrations were generated, the data were imported into WinNonlin™, Version 5.2 (WinNonlin™ Copyright ©2008, Pharsight Corporation), a nonparametric superposition was carried out to predicted the steady-state plasma concentration-time profiles resulting from QD and BID dosing.
As stated previously, the PK parameters were calculated using nonlinear-mixed-effect model using the software MonoLix 3.1. […]

[1] = humans, cited from earlier work
[2] = human subjects, buccal administration; cited from earlier work
α2-aderenoceptor = details: selective α2-adrenoceptor agonist; cited from earlier work

Structure (SMILES): Cc1cccc([C@H](C)c2cnc[nH]2)c1C [dexmedetomidine, 5-[(1S)-1-(2,3-dimethylphenyl)ethyl]-1H-imidazole]
- period of absorption at a constant rate (clinical): ~20 h
- portion of the plasma concentrations below the quantifiable level of 0.02 ng/mL (clinical): 67%
- half-life (clinical; topical or ocular): ~15 h
- time to maximum concentration in blood ([1]; i.m. administration): 1.6 to 1.7 h
- time to maximum concentration in blood ([1]; transdermal administration): 6 h
- time of maximum concentration [2]: approximately 1.5 h
- selectivity relative to that of clonidine (α2-aderenoceptor): approximately 10 fold
